# In the supplement of paper PMC11061612:
# Assays:
# Test in all cases: combination Emax (second highest fraction inhibited in the dose matrix, 72 h); higher = more inhibition; extreme values may be limits of the assay
# [1] = tested on: A3-KAW (B-Cell Non-Hodgkin's Lymphoma)
# Procedure, shortened: (§1)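 Bliss excess equals the observed combination effect minus the expected value EA + EB − EA·EB, where EA and EB are the effects of each agent alone. Combination Emax is the second-highest inhibition within the matrix. Inhibition was scaled from CellTiter-Glo 2.0 luminescence, with 0 set by vehicle wells and 1 by blank wells, after 72 hours of two-drug dosing of cells plated in 1536-well plates.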
# [2] = tested on: A549 (Lung Adenocarcinoma)
# Procedure, shortened: as §1
# [3] = tested on: CAL-29 (Bladder Carcinoma)
# Procedure, shortened: as §1
# [4] = tested on: CCK-81 (Colorectal Carcinoma)
# Procedure, shortened: as §1
# [5] = tested on: ECC10 (Gastric Carcinoma)
# Procedure, shortened: as §1
# FU97 (Gastric Carcinoma) = tested on: FU97 (Gastric Carcinoma)
# Procedure, shortened: as §1
# [6] = tested on: HCC1954 (Breast Carcinoma)
# Procedure, shortened: as §1
# Hs-445 (Non-Cancerous) = tested on: Hs-445 (Non-Cancerous)
# Procedure, shortened: as §1
# IGR-37 (Melanoma) = tested on: IGR-37 (Melanoma)
# Procedure, shortened: as §1
# [7] = tested on: MDST8 (Colorectal Carcinoma)
# Procedure, shortened: as §1
# [8] = tested on: NCI-H1666 (Lung Adenocarcinoma)
# Procedure, shortened: as §1
# NCI-H2591 (Mesothelioma) = tested on: NCI-H2591 (Mesothelioma)
# Procedure, shortened: as §1
# [9] = tested on: ONS-76 (Other Solid Carcinomas)
# Procedure, shortened: as §1
# [10] = tested on: OS-RC-2 (Kidney Carcinoma)
# Procedure, shortened: as §1
# [11] = tested on: PANC-10-05 (Pancreatic Carcinoma)
# Procedure, shortened: as §1
# [12] = tested on: SK-MES-1 (Squamous Cell Lung Carcinoma)
# Procedure, shortened: as §1
# [13] = tested on: SK-MG-1 (Low Grade Glioma)
# Procedure, shortened: as §1
# [14] = tested on: TT (Thyroid Gland Carcinoma)
# Procedure, shortened: as §1
# U-2-OS (Osteosarcoma) = tested on: U-2-OS (Osteosarcoma)
# Procedure, shortened: as §1
# [15] = tested on: VCaP (Prostate Carcinoma)
# Procedure, shortened: as §1
smiles,measurement,setting,value
"NC1(C(=O)N[C@@H](CCO)c2ccc(Cl)cc2)CCN(c2ncnc3[nH]ccc23)CC1 [Capivasertib] + C[C@@H]1COCCN1C2=NC(=NC(=C2)C3(CC3)[S@](=N)(=O)C)C4=C5C=CNC5=NC=C4 [AZD6738] (first compound max 10 µM, 7x7, partner max 10 µM)",combination Emax,[1],0.992
same,combination Emax,[2],0.848
same,combination Emax,[3],0.716
same,combination Emax,[4],0.857
same,combination Emax,[5],0.498
same,combination Emax,FU97 (Gastric Carcinoma),0.482
same,combination Emax,[6],0.859
same,combination Emax,Hs-445 (Non-Cancerous),0.78
same,combination Emax,IGR-37 (Melanoma),0.733
same,combination Emax,[7],0.765
same,combination Emax,[8],0.44
same,combination Emax,NCI-H2591 (Mesothelioma),0.482
same,combination Emax,[9],0.852
same,combination Emax,[10],0.481
same,combination Emax,[11],0.519
same,combination Emax,[12],0.855
same,combination Emax,[13],0.668
same,combination Emax,[14],0.484
same,combination Emax,U-2-OS (Osteosarcoma),0.535
same,combination Emax,[15],0.567
"COc1cc2ncnc(Nc3ccc(F)c(Cl)c3)c2cc1OCCCN1CCOCC1 [Gefitinib] + CC(C)n1c(=O)n(C)c2cnc3cc(F)c(-c4ccc(OCCCN5CCCCC5)nc4)cc3c21 [AZD1390] (first compound max 10 µM, 7x7, partner max 0.3 µM)",combination Emax,[1],0.605
same,combination Emax,[2],0.435
same,combination Emax,[3],0.228
same,combination Emax,[4],0.661
same,combination Emax,[5],0.12
same,combination Emax,FU97 (Gastric Carcinoma),0.149
same,combination Emax,[6],0.267
same,combination Emax,Hs-445 (Non-Cancerous),0.369
same,combination Emax,IGR-37 (Melanoma),0.252
same,combination Emax,[7],0.0181
same,combination Emax,[8],0.484
same,combination Emax,NCI-H2591 (Mesothelioma),0.0235
same,combination Emax,[9],0.11
same,combination Emax,[10],0.145
same,combination Emax,[11],0.202
same,combination Emax,[12],0.408
same,combination Emax,[13],0.072
same,combination Emax,[14],0.118
same,combination Emax,U-2-OS (Osteosarcoma),0.0294
same,combination Emax,[15],0.0675
"Cc1cc2ncnn2cc1Nc1ncc2c(n1)n(C1CCOCC1)c(=O)n2C [AZD7648] + C=CCn1c(=O)c2cnc(Nc3ccc(N4CCN(C)CC4)cc3)nc2n1-c1cccc(C(C)(C)O)n1 [AZD1775] (first compound max 10 µM, partner max 1 µM)",combination Emax,[1],0.896
same,combination Emax,[2],0.578
same,combination Emax,[3],0.618
same,combination Emax,[4],0.833
same,combination Emax,[5],0.797
same,combination Emax,FU97 (Gastric Carcinoma),0.397
same,combination Emax,[6],0.483
same,combination Emax,Hs-445 (Non-Cancerous),0.909
same,combination Emax,IGR-37 (Melanoma),0.674
same,combination Emax,[7],0.513
same,combination Emax,[8],0.357
same,combination Emax,NCI-H2591 (Mesothelioma),0.368
same,combination Emax,[9],0.589
same,combination Emax,[10],0.419
same,combination Emax,[11],0.49
same,combination Emax,[12],0.711
same,combination Emax,[13],0.594
same,combination Emax,[14],0.475
same,combination Emax,U-2-OS (Osteosarcoma),0.614
same,combination Emax,[15],0.533
"COc1cccc(OCCCN)c1-c1cc(Nc2cnc(C#N)cn2)n[nH]1 [Prexasertib] + C=CCn1c(=O)c2cnc(Nc3ccc(N4CCN(C)CC4)cc3)nc2n1-c1cccc(C(C)(C)O)n1 [AZD1775] (first compound max 1 µM, partner max 1 µM)",combination Emax,[1],1
same,combination Emax,[2],0.776
same,combination Emax,[3],0.876
same,combination Emax,[4],0.945
same,combination Emax,[5],0.904
same,combination Emax,FU97 (Gastric Carcinoma),0.367
same,combination Emax,[6],0.963
same,combination Emax,Hs-445 (Non-Cancerous),0.947
same,combination Emax,IGR-37 (Melanoma),0.879
same,combination Emax,[7],0.954
same,combination Emax,[8],0.431
same,combination Emax,NCI-H2591 (Mesothelioma),0.472
same,combination Emax,[9],0.829
same,combination Emax,[10],0.519
same,combination Emax,[11],0.595
same,combination Emax,[12],0.777
same,combination Emax,[13],0.908
same,combination Emax,[14],0.759
same,combination Emax,U-2-OS (Osteosarcoma),0.934
same,combination Emax,[15],0.774
"Cc1cc2ncnn2cc1Nc1ncc2c(n1)n(C1CCOCC1)c(=O)n2C [AZD7648] + CCN(CCO)CCCOc1ccc2c(Nc3cc(CC(=O)Nc4cccc(F)c4)[nH]n3)ncnc2c1 [AZD2811] (first compound max 10 µM, 7x7, partner max 1 µM)",combination Emax,[1],0.608
same,combination Emax,[2],0.718
same,combination Emax,[3],0.301
same,combination Emax,[4],0.291
same,combination Emax,[5],0.908
same,combination Emax,FU97 (Gastric Carcinoma),0.337
same,combination Emax,[6],0.342
same,combination Emax,Hs-445 (Non-Cancerous),0.465
same,combination Emax,IGR-37 (Melanoma),0.285
same,combination Emax,[7],0.485
same,combination Emax,[8],0.381
same,combination Emax,NCI-H2591 (Mesothelioma),0.37
same,combination Emax,[9],0.398
same,combination Emax,[10],0.287
same,combination Emax,[11],0.43
same,combination Emax,[12],0.373
same,combination Emax,[13],0.461
same,combination Emax,[14],0.611
same,combination Emax,U-2-OS (Osteosarcoma),0.229
same,combination Emax,[15],0.314
"CC1(C)CCC(CN2CCN(c3ccc(C(=O)NS(=O)(=O)c4ccc(NCC5CCOCC5)c([N+](=O)[O-])c4)c(Oc4cnc5[nH]ccc5c4)c3)CC2)=C(c2ccc(Cl)cc2)C1 [Venetoclax] + Cc1cc2ncnn2cc1Nc1ncc2c(n1)n(C1CCOCC1)c(=O)n2C [AZD7648] (first compound max 1 µM, 7x7, partner max 10 µM)",combination Emax,[1],0.417
same,combination Emax,[2],0.436
same,combination Emax,[3],0.209
same,combination Emax,[4],0.173
same,combination Emax,[5],0.955
same,combination Emax,FU97 (Gastric Carcinoma),0.494
same,combination Emax,[6],0.336
same,combination Emax,Hs-445 (Non-Cancerous),0.405
same,combination Emax,IGR-37 (Melanoma),0.556
same,combination Emax,[7],0.245
same,combination Emax,[8],0.232
same,combination Emax,NCI-H2591 (Mesothelioma),0.315
same,combination Emax,[9],0.764
same,combination Emax,[10],0.274
same,combination Emax,[11],0.332
same,combination Emax,[12],0.155
same,combination Emax,[13],0.28
same,combination Emax,[14],0.601
same,combination Emax,U-2-OS (Osteosarcoma),0.206
same,combination Emax,[15],0.293
"Cc1c2c(nn1C)CSCc1cc(n(C)n1)CSc1cc(c3ccccc3c1)OCCCc1c(C(=O)O)n(C)c3c-2c(Cl)ccc13 [AZD5991] + Cc1cc2ncnn2cc1Nc1ncc2c(n1)n(C1CCOCC1)c(=O)n2C [AZD7648] (first compound max 1 µM, 7x7, partner max 10 µM)",combination Emax,[1],1
same,combination Emax,[2],0.461
same,combination Emax,[3],0.43
same,combination Emax,[4],0.933
same,combination Emax,[5],0.669
same,combination Emax,FU97 (Gastric Carcinoma),0.293
same,combination Emax,[6],0.992
same,combination Emax,Hs-445 (Non-Cancerous),0.942
same,combination Emax,IGR-37 (Melanoma),0.25
same,combination Emax,[7],0.34
same,combination Emax,[8],0.246
same,combination Emax,NCI-H2591 (Mesothelioma),0.305
same,combination Emax,[9],0.315
same,combination Emax,[10],0.286
same,combination Emax,[11],0.404
same,combination Emax,[12],0.223
same,combination Emax,[13],0.374
same,combination Emax,[14],0.38
same,combination Emax,U-2-OS (Osteosarcoma),0.261
same,combination Emax,[15],0.94
